{
  "source": "patent US6274590A",
  "about": "“Method of treating skin related conditions” (G. D. Searle & Co., priority 2000, dated 2001)",
  "key": {"carrageenan foot edema": {"tested_on": "carrageenan foot edema", "assay": "Rat Carrageenan Foot Pad Edema Test", "type": "in vivo, rat (male Sprague-Dawley)", "conditions": "@ 10 mg/kg body weight, oral, 3 h after carrageenan", "method": "(§1) The carrageenan foot edema test was performed with materials, reagents and procedures essentially as described by Winter, et al., (Proc. Soc. Exp. Biol. Med., 111, 544 (1962) Male Sprague-Dawlev rats were selected in each group so that the average body weight was as close as possible. Rats were fasted with free access to water for over sixteen hours prior to the test. The rats were dosed orally (1 mL) with compounds suspended in vehicle containing 0.5% methylcellulose and 0.025% surfactant, or with vehicle alone. one hour later a subplantar injection of 0.1 mL of 1% solution of carrageenan/sterile 0.9% saline was administered and the volume of the injected foot was measured with a displacement plethysmometer connected to a pressure transducer with a digital indicator. Three hours after the injection of the carrageenan, the volume of the foot was again measured. The average foot swelling in a group of drug-treated animals was compared with that of a group of placebo-treated animals and the percentage inhibition of edema was determined (Otterness and Bliven, Laboratory Models for Testing NSAIDs, in Non-steroidal Anti-Inflammatory Drugs, (J. Lombardino, ed. 1985))."}, "[1]": {"tested_on": "carrageenan-induced hyperalgesic foot withdrawal", "assay": "Rat Carrageenan-induced Analgesia Test", "type": "in vivo, rat (male Sprague-Dawley)", "conditions": "oral, 3 h after carrageenan", "method": "as §1\nThe analgesia test using rat carrageenan was performed with materials, reagents and procedures essentially as described by Hargreaves, et al., (Pain, 32, 77 (1988)). Male Sprague-Dawley rats were treated as previously described, for the Carrageenan Foot Pad Edema test. Three hours after the injection of the carrageenan, the rats were placed in a special plexiglass container with a transparent floor having a high intensity lamp as a radiant heat source, positionable under the floor. After an initial twenty minute period, thermal stimulation was begun on either the injected foot or on the contralateral uninjected foot. […] The time until the rat withdraws its foot was then measured. The withdrawal latency in seconds was determined for the control and drug-treated groups, and percent inhibition of the hyperalgesic foot withdrawal determined."}, "[2]": {"conditions": "reported in cited literature or patents; cited from earlier work"}, "prostaglandin synthetase": {"tested_on": "prostaglandin synthetase", "conditions": "U.S. Pat. No. 4,820,827; cited from earlier work"}, "Murine COX I": {"target": "T1, Murine COX I (Mus musculus, UniProt P22437)", "T1 construct": "A 2.0 kb fragment containing the coding region; made in house; host or cells: SF9 insect cells (recombinant baculovirus, pVL1393)", "T1 sequence (P22437 27-602)": "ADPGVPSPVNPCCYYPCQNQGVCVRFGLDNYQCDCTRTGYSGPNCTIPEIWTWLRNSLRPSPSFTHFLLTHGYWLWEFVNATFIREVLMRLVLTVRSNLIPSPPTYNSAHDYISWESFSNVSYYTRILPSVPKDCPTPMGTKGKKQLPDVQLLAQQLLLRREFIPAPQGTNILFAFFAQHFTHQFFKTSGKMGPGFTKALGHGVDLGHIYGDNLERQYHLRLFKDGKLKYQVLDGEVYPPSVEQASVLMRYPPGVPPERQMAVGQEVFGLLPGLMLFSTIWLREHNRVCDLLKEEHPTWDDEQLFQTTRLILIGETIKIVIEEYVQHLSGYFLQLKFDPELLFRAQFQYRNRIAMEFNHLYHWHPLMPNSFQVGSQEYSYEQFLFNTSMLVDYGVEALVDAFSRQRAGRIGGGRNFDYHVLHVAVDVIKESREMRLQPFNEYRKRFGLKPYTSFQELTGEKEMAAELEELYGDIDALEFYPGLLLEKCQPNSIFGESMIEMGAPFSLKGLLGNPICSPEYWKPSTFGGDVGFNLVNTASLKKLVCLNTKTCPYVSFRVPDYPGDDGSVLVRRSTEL", "assay": "COX I activity in vitro (PGE2 ELISA, recombinant enzyme)", "type": "biochemical", "conditions": "arachidonic acid 10 μM, read-out: Murine COX I ID50", "method": "(§2) A 2.0 kb fragment containing the coding region of either human or murine COX-I or human or murine COX-II was cloned into a BamH1 site of the baculovirus transfer vector pVL1393 to generate the baculovirus transfer vector. Recombinant baculoviruses were isolated by transfecting 4 μg of baculovirus transfer vector DNA into SF9 cells (2×10e8) along with 200 ng of linearized baculovirus plasmid DNA by the calcium phosphate method. Recombinant viruses were purified by three rounds of plaque purification and high titer (10E7-10E8 pfu/ml) stocks of virus were prepared. For large scale production, SF9 insect cells were infected in 10 liter fermentors (Bioprocess group) 0.5×10^6 /ml) with the recombinant baculovirus stock such that the multiplicity of infection was 0.1. […] The homogenate was centrifuged at 10,000×G for 30 minutes, and the resultant supernatant was stored at -80° C. before being assayed for COX activity.\n(§3) COX activity was assayed as PGE2 formed/μg protein/time using an ELISA to detect the prostaglandin released. CHAPS-solubilized insect cell membranes containing the appropriate COX enzyme were incubated in a potassium phosphate buffer (50 mM, pH 8.0) containing epinephrine, phenol, and heme with the addition of arachidonic acid (10 μM). […] The PGE2 formed was measured by standard ELISA technology (Cayman Chemical)."}, "Murine COX II": {"target": "T2, Murine COX II (Mus musculus, UniProt Q05769)", "T2 construct": "A 2.0 kb fragment containing the coding region; made in house; host or cells: SF9 insect cells (recombinant baculovirus, pVL1393)", "T2 sequence (Q05769 18-604)": "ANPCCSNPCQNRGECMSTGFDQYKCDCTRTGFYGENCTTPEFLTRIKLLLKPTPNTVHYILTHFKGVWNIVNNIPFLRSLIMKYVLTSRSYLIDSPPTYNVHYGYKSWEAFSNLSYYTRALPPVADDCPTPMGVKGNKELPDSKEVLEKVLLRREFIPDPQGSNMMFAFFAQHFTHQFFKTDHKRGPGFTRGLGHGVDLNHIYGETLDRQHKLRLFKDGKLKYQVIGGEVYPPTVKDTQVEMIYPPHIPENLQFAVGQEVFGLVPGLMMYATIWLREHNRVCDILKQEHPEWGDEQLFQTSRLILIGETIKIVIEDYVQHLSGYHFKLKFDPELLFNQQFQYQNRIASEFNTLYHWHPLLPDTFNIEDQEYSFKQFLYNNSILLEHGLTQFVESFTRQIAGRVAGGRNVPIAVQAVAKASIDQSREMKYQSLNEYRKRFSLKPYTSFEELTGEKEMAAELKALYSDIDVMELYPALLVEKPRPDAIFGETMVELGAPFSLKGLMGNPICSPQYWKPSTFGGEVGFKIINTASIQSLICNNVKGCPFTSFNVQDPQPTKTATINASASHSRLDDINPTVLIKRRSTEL", "assay": "COX II activity in vitro (PGE2 ELISA, recombinant enzyme)", "type": "biochemical", "conditions": "arachidonic acid 10 μM, read-out: Murine COX II ID50", "method": "as §2, §3"}, "COX II enzyme": {"tested_on": "COX II enzyme", "conditions": "J. Biol. Chem., 268, 6610 (1993); cited from earlier work"}, "[3]": {"conditions": "Gen. Pharmac., 24, 105 (1993); cited from earlier work"}},
  "data": [
    {"smiles": "CS(=O)(=O)c1ccc(-c2cscc2-c2ccc(F)nc2)cc1", "note": "[Example 14]", "values": [
      {"measurement": "RAT PAW EDEMA % Inhibition", "setting": "carrageenan foot edema", "result": 30, "unit": "%"},
      {"measurement": "ANALGESIA % Inhibition", "setting": "[1]; @ 20 mg/kg body weight", "result": 28, "unit": "%"}
    ]},
    {"smiles": "CS(=O)(=O)c1ccc(-c2csc(Br)c2-c2ccc(F)cc2)cc1", "note": "[Example 2, 4-(4-Methylsulfonylphenyl)-3-(4-fluorophenyl)-2-bromothiophene]", "values": [
      {"measurement": "RAT PAW EDEMA % Inhibition", "setting": "carrageenan foot edema", "result": 30, "unit": "%"},
      {"measurement": "ANALGESIA % Inhibition", "setting": "[1]; @3 mpk", "result": 0, "unit": "%"}
    ]},
    {"smiles": "CSc1ccc(-c2sc(Br)cc2-c2ccc(F)cc2)cc1", "note": "[5-bromo-2-(4-methylthiophenyl)-3-(4-fluorophenyl)thiophene]", "values": [
      {"measurement": "antiinflammatory activity", "setting": "[2]", "result": "antiinflammatory"},
      {"measurement": "prostaglandin synthetase inhibitory activity", "setting": "prostaglandin synthetase", "result": "prostaglandin synthetase inhibitory activity"}
    ]},
    {"smiles": "CS(=O)(=O)c1ccc(-c2c(Br)sc(Br)c2-c2ccc(F)cc2)cc1", "note": "[Example 3, 4-(4-Methylsulfonylphenyl)-3-(4-fluorophenyl)-2,5-dibromothiophene]", "values": [
      {"measurement": "IC50", "setting": "Murine COX I", "result": 100, "unit": "µM"}
    ]},
    {"smiles": "Cc1cc(F)ccc1-c1cscc1-c1ccc(S(C)(=O)=O)cc1", "note": "[Example 15]", "values": [
      {"measurement": "RAT PAW EDEMA % Inhibition", "setting": "carrageenan foot edema", "result": 20, "unit": "%"}
    ]},
    {"smiles": "CCOC(=O)c1sc(C(=O)O)c(-c2ccc(F)cc2)c1-c1ccc(S(C)(=O)=O)cc1", "note": "[Example 8, 2-Ethoxycarbonyl-4-(4-fluorophenyl)-3-(4-methanesulfonylphenyl)-thienyl-5-carboxylic acid]", "values": [
      {"measurement": "IC50", "setting": "Murine COX I", "result": "> 100", "unit": "µM"},
      {"measurement": "IC50", "setting": "Murine COX II", "result": 5.5, "unit": "µM"}
    ]},
    {"smiles": "COc1ccc2cc(CC(=O)O)ccc2c1", "note": "[6-methoxy-2-napthylacetic acid]", "values": [
      {"measurement": "inhibition of the COX II enzyme", "setting": "COX II enzyme", "result": "selectively inhibit the COX II enzyme"}
    ]},
    {"smiles": "COc1ccc(-c2cscc2-c2ccc(OC)cc2)cc1", "note": "[Example 4, 3,4-Bis(4-methoxyphenyl)thiophene]", "values": [
      {"measurement": "RAT PAW EDEMA % Inhibition", "setting": "carrageenan foot edema", "result": 22, "unit": "%"}
    ]},
    {"smiles": "CS(=O)(=O)Nc1ccc([N+](=O)[O-])cc1OC1CCCCC1", "note": "[N-(2-cyclohexyloxy-4-nitrophenyl)methanesulfonamide]", "values": [
      {"measurement": "antiinflammatory activity", "setting": "[2]", "result": "antiinflammatory"},
      {"measurement": "gastric side effects", "setting": "[3]", "result": "lacks gastric side effects"}
    ]},
    {"smiles": "CCOC(=O)CCc1scc(-c2ccccc2)c1-c1ccccc1", "note": "[ethyl 3,4-diphenylthiophene-2-propionate]", "values": [
      {"measurement": "antiinflammatory activity", "setting": "[2]", "result": "antiinflammatory activity"}
    ]},
    {"smiles": "CS(=O)(=O)c1ccc(-c2cscc2-c2ccc(F)cc2)cc1", "note": "[Example 1, 3-(4-Methylsulfonylphenyl)-4-(4-fluorophenyl)thiophene]", "values": [
      {"measurement": "ANALGESIA % Inhibition", "setting": "[1]; @ 20 mg/kg body weight", "result": 8, "unit": "%"}
    ]}
  ]
}
